Test results from US20070117808A1, “Substituted Cycloalkylpyrrolones As Allosteric Modulators Of Glucokinase” (priority 2005, published 2007).
Values joined by “and” are separate entries in the source; they are usually repeats but may differ in a detail not shown here. Identical values can stand only once.

Assays:
[1] = target: T1, human pancreas Glucokinase (GK) (Homo sapiens, UniProt P35557); test: Glucokinase enzyme assay, pancreas GK; assay type: biochemical; settings: for EC50: concentration that produces 50% activation above the vehicle control; for EC100%: concentration that produces 100% activation above the vehicle control; for activation at 50 µM: percentage increase in GK activity above vehicle control, compound 50 μM, 12 mM glucose
T1 construct: (His)6; made in house; host or cells: Escherichia coli
T1 sequence (P35557 1-465): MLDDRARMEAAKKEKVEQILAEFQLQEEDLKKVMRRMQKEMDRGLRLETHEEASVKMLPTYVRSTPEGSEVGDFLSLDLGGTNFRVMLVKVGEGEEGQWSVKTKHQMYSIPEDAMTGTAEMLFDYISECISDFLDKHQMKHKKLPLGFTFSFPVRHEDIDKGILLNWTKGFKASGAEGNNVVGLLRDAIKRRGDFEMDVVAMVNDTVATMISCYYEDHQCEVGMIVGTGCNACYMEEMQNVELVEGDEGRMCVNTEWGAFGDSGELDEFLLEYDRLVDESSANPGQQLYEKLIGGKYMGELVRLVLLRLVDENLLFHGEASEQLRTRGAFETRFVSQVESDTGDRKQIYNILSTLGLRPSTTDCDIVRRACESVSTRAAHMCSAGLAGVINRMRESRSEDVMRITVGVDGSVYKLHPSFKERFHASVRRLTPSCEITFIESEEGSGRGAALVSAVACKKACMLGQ
Excerpt: (§1) An enzymatic Glucokinase (GK) assay using purified recombinant human liver/pancreas enzyme was used to evaluate the effects of potential small molecule modulators.
(§2) In this assay, GK catalyzes glucose phosphorylation in the presence of ATP. The product of this reaction, glucose-6-phosphate, was then oxidized by an excess of glucose-6-phosphate dehydrogenase to produce gluconate-6-phosphate with concomitant reduction of nicotinamide adenine dinucleotide (NAD). […] Human GK (Liver/Pancreas) was expressed in Escherichia coli as a (His) 6-tagged fusion protein and was purified by metal chelate affinity chromatography. The assay was performed in a final incubation volume of 80 μl in a 96-well clear low UV absorption plates. The incubation mixture consisted of 25 mM HEPES, 2 mM MgSO4, 1 mM dithiothreotol (DTT), 1 mg/mL bovine serum albumin (BSA), 1 mM ATP, 1 mM NAD, and 12 mM glucose, 10 units per mL glucose-6-phosphate dehydrogenase, and +/−300 ng per mL GK. For determination of the affinity (Km) and Vmax, different concentrations of glucose ranging from 0.5 mM to 40 mM were used in the assay; see Grimsby, J., Sarabu, R.; Grippo, J. F.; et. al. Science 2003, 301, 370-373. Production of reduced NAD (Nicotinamide Adenine Dinucleotide) was measured as changes in absorption at 340 nm in 96-well plate reader (Envision model # 2101 Multilabel Plate reader). % Activation @ 50 μM was calculated as the percentage increase in GK activity above the vehicle control with the effective concentration of the compound being 50 μM. EC50% (μM) was calculated as the effective concentration of the compound that produces 50% activation above the vehicle control, and EC100% (μM) was calculated as the effective concentration of the compound that produces 100% activation above the vehicle control.

[2] = target: T2, human liver Glucokinase (GK) (Homo sapiens, UniProt P35557); test: Glucokinase enzyme assay, liver GK; assay type: biochemical; settings: for EC50: concentration that produces 50% activation above the vehicle control; for EC100%: concentration that produces 100% activation above the vehicle control; for activation at 50 µM: percentage increase in GK activity above vehicle control, compound 50 μM, 12 mM glucose
T2 construct: (His)6; made in house; host or cells: Escherichia coli
T2 sequence (P35557 1-466 isoform P35557-2): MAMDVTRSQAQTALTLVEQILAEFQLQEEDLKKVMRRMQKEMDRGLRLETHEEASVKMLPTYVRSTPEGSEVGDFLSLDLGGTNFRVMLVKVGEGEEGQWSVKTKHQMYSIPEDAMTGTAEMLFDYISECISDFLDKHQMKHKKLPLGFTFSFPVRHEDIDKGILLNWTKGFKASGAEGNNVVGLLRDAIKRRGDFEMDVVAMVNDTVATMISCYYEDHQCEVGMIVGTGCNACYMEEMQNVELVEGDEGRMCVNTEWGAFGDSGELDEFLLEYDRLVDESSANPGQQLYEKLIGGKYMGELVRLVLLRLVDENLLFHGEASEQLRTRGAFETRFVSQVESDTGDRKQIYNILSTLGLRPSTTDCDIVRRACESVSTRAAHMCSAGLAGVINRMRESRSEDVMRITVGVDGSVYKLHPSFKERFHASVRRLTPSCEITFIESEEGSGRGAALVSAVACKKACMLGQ
Excerpt: as §1, §2

Compound	EC50 [1]	EC100% [1]	activation at 50 µM [1] [%]	EC50 [2]	EC100% [2]	activation at 50 µM [2] [%]
COC(=O)c1ccc(NC(=O)CSC2C3=C(CCCC3)C(=O)N2Cc2ccc(OC)c(OC)c2)nc1 (stereo not drawn) [Compound 9, 6-{2-[2-(3,4-Dimethoxy-benzyl)-3-oxo-2,3,4,5,6,7-hexahydro-1H-isoindol-1-ylsulfanyl]-acetylamino}-nicotinic acid methyl ester]	0.33 µM	2.2 µM	164	0.25 µM	1.43 µM	206
COc1ccc(CN2C(=O)C3=C(CCCC3)C2SCC(=O)Nc2ccc(C(N)=O)cn2)cc1OC (stereo not drawn) [Compound 13, 6-{2-[2-(3,4-Dimethoxy-benzyl)-3-oxo-2,3,4,5,6,7-hexahydro-1H-isoindol-1-ylsulfanyl]-acetylamino}-nicotinamide]	0.21 µM	3.1 µM	–	–	–	–
O=C(CSC1C2=C(CCCC2)C(=O)N1Cc1ccc(O)cc1)Nc1nccs1 (stereo not drawn) [Compound 15, 2-[2-(4-Hydroxy-benzyl)-3-oxo-2,3,4,5,6,7-hexahydro-1H-isoindol-1-ylsulfanyl]-N-thiazol-2-yl-acetamide]	7.3 µM	>50 µM	106	–	–	–
COc1ccc(CN2C(=O)C3=C(CCCC3)C2SCC(=O)Nc2nccs2)cc1OC (stereo not drawn) [Compound 12, 2-[2-(3,4-Dimethoxy-benzyl)-3-oxo-2,3,4,5,6,7-hexahydro-1H-isoindol-1-ylsulfanyl]-N-thiazol-2-yl-acetamide]	4.3 µM	17.1 µM	143	3.1 µM	10.3 µM	196
O=C(CSC1C2=C(CCCC2)C(=O)N1Cc1ccc(F)cc1)Nc1ccc(C(=O)O)cn1 (stereo not drawn) [Compound 21, 6-{2-[2-(4-Fluoro-benzyl)-3-oxo-2,3,4,5,6,7-hexahydro-1H-isoindol-1-ylsulfanyl]-acetylamino}-nicotinic acid]	2.2 µM	12 µM	165	–	–	–
COc1ccc([C@H](C)N2C(=O)C3=C(CCCC3)[C@@H]2SCC(=O)Nc2ccccn2)cc1 (single isomer, unassigned) [Compound 6]	–	–	79	–	–	21
COc1ccc(CN2C(=O)C3=C(CCCC3)C2OCC(=O)Nc2ccccn2)cc1 (stereo not drawn) [Compound 4, 2-[2-(4-Methoxy-benzyl)-3-oxo-2,3,4,5,6,7-hexahydro-1H-isoindol-1-yloxy]-N-pyridin-2-yl-acetamide]	–	–	–	7.78 µM	31.4 µM	114
COc1ccc([C@H](C)N2C(=O)C3=C(CCCC3)[C@H]2SCC(=O)Nc2ccccn2)cc1 (single isomer, unassigned) [Compound 7]	–	–	35	–	–	0
COC(=O)c1ccc(NC(=O)CSC2C3=C(CCCC3)C(=O)N2Cc2ccc(OC)cc2)nc1 (stereo not drawn) [Compound 2]	0.35 µM	1.32 µM	–	0.16 µM and 0.21 µM	0.52 µM and 0.98 µM	–
COC(=O)c1ccc(NC(=O)CSC2C3=C(CCCC3)C(=O)N2Cc2ccc(OC(C)C)cc2)nc1 (stereo not drawn) [Compound 5]	–	–	–	3.1 µM and 1.05 µM	5.54 µM	–
COc1ccc(CN2C(=O)C3=C(CCCC3)C2SCC(=O)Nc2ccc(C(=O)O)cn2)cc1 (stereo not drawn) [Compound 8, 6-{2-[2-(4-Methoxy-benzyl)-3-oxo-2,3,4,5,6,7-hexahydro-1H-isoindol-1-ylsulfanyl]-acetylamino}-nicotinic acid]	1.3 µM and 0.74 µM and 0.63 µM	–	–	0.9 µM	2.5 µM	–
COc1ccc(CN2C(=O)C3=C(CCCC3)C2SCC(=O)Nc2ccc(C)cn2)cc1OC (stereo not drawn) [Compound 11, 2-[2-(3,4-Dimethoxy-benzyl)-3-oxo-2,3,4,5,6,7-hexahydro-1H-isoindol-1-ylsulfanyl]-N-(5-methyl-pyridin-2-yl)-acetamide]	0.8 µM	5.7 µM	168	0.55 µM	3.5 µM	202

Further lines, results first:

EC50 [1]	EC100% [1]	activation at 50 µM [1] [%]	EC50 [2]	EC100% [2]	activation at 50 µM [2] [%]	Compound
–	–	–	0.39 µM	1 µM	250	COc1ccc(CN2C(=O)C3=C(CCCC3)C2SCC(=O)Nc2ccccn2)cc1 (stereo not drawn) [Compound 3, 2-[2-(4-Methoxy-benzyl)-3-oxo-2,3,4,5,6,7-hexahydro-1H-isoindol-1-ylsulfanyl]-N-pyridin-2-yl-acetamide]
10.9 µM	>50 µM	79.4	–	–	–	O=C(CSC1C2=C(CCCC2)C(=O)N1Cc1ccc([N+](=O)[O-])cc1)Nc1ccccn1 (stereo not drawn) [Compound 14, 2-[2-(4-Nitro-benzyl)-3-oxo-2,3,4,5,6,7-hexahydro-1H-isoindol-1-ylsulfanyl]-N-pyridin-2-yl-acetamide]
1.1 µM	4.9 µM	190	–	–	–	COc1ccc(CN2C(=O)C3=C(CCC3)C2SCC(=O)Nc2ccccn2)cc1 (stereo not drawn) [Compound 16, 2-[2-(4-Methoxy-benzyl)-3-oxo-1,2,3,4,5,6-hexahydro-cyclopenta[c]pyrrol-1-ylsulfanyl]-N-pyridin-2-yl-acetamide]
0.71 µM	6.3 µM	125	–	–	–	O=C(CSC1C2=C(CCCC2)C(=O)N1Cc1cccc2ccccc12)Nc1ccccn1 (stereo not drawn) [Compound 17, 2-(2-Naphthalen-1-ylmethyl-3-oxo-2,3,4,5,6,7-hexahydro-1H-isoindol-1-ylsulfanyl)-N-pyridin-2-yl-acetamide]
3.6 µM	22 µM	–	–	–	–	O=C(CSC1C2=C(CCCC2)C(=O)N1Cc1cccnc1)Nc1ccccn1 (stereo not drawn) [Compound 18, 2-(3-Oxo-2-pyridin-3-ylmethyl-2,3,4,5,6,7-hexahydro-1H-isoindol-1-ylsulfanyl)-N-pyridin-2-yl-acetamide]
0.45 µM	1.8 µM	–	0.39 µM	1.35 µM	259	COc1ccc(CN2C(=O)C3=C(CCCC3)C2SCC(=O)Nc2ccccn2)cc1OC (stereo not drawn) [Compound 10, 2-[2-(3,4-Dimethoxy-benzyl)-3-oxo-2,3,4,5,6,7-hexahydro-1H-isoindol-1-ylsulfanyl]-N-pyridin-2-yl-acetamide]
1.6 µM	5 µM	218	–	–	–	O=C(CSC1C2=C(CCCC2)C(=O)N1Cc1ccncc1)Nc1ccccn1 (stereo not drawn) [Compound 19, 2-(3-Oxo-2-pyridin-4-ylmethyl-2,3,4,5,6,7-hexahydro-1H-isoindol-1-ylsulfanyl)-N-pyridin-2-yl-acetamide]
0.45 µM and 0.27 µM	2 µM and 3.6 µM	–	–	–	–	NC(=O)c1ccc(NC(=O)CSC2C3=C(CCCC3)C(=O)N2Cc2ccc(F)cc2)nc1 (stereo not drawn) [Compound 20, 6-{2-[2-(4-Fluorobenzyl)-3-oxo-2,3,4,5,6,7-hexahydro-1H-isoindol-1-sulfanyl]-acetylamino}-nicotinamide]
